Assay [1] has as its target T1, 5-hydroxytryptamine receptor 2C (Homo sapiens, UniProt P28335).
T1 sequence (P28335 whole entry): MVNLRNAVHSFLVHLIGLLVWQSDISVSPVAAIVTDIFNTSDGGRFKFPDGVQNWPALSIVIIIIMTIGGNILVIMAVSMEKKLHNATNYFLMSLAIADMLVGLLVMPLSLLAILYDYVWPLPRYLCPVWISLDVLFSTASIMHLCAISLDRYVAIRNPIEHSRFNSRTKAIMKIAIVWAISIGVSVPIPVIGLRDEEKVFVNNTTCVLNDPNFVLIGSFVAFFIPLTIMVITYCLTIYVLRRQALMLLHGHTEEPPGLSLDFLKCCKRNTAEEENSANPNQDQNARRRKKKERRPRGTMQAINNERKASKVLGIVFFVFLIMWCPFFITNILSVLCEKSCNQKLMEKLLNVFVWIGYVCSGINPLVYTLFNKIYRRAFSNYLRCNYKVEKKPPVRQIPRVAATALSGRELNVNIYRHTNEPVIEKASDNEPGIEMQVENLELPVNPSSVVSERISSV
Nature of the assay: Displacement of [N-methyl-3H]LSD from human 5HT2C receptor expressed in HEK293 cells. It is filed as cell-based.

The target in assay [2] is T2, 5-hydroxytryptamine receptor 4 (Homo sapiens, UniProt Q13639). Nature of the assay: Displacement of [N-methyl-3H]GR-113808 from human 5HT4 receptor expressed in HEK293 cells. It is filed as cell-based.
T2 sequence (Q13639 whole entry): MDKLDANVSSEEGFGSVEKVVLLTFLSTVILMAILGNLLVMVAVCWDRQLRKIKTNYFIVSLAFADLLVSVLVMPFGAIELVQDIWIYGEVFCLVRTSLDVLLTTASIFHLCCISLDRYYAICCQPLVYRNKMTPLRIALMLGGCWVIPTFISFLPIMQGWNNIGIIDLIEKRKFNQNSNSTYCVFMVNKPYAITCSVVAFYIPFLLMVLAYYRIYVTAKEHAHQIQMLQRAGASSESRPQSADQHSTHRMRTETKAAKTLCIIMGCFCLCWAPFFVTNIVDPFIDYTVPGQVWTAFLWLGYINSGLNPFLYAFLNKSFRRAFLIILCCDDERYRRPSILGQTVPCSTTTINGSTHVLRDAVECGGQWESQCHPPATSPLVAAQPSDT
The target of assay [3] is 5-hydroxytryptamine receptor 2A (Homo sapiens, UniProt P28223). Nature of the assay: biochemical. Type of assay: cell-based, HEK293.
Chain of 5-hydroxytryptamine receptor 2A (P28223 whole entry): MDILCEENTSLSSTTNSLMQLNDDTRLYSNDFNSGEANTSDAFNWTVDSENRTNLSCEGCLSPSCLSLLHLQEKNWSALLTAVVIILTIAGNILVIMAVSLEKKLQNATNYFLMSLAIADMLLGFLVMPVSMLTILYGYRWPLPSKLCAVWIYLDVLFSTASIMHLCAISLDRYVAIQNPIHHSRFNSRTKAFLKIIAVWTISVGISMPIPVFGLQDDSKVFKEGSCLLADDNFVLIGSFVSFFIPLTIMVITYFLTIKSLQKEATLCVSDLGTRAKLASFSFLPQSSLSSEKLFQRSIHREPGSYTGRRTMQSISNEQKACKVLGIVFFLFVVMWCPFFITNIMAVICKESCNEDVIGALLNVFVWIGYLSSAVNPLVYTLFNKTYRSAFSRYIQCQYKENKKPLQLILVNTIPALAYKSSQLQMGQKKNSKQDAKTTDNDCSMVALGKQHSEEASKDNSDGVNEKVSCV
The target of assay [4] is T2, 5-hydroxytryptamine receptor 4. Nature of the assay: Binding affinity to human 5HT4 receptor expressed in HEK293 cells by saturation binding method. Type of assay: cell-based.

For orientation: Ki means the dissociation constant of the complex between target and ligand, obtained from inhibition or displacement. Low values mean a stronger hold on the target, high ones a looser hold on the target. Broadly, the Kd is the constant that tells how readily two partners part at equilibrium. Read a low Kd as tighter binding.

`CC[C@@H](CO)NC(=O)[C@@H]1C=C2c3cccc4c3c(cn4C)C[C@H]2N(C)C1` [METHYSERGIDE] displayed a Ki in assay [1] of 2.5 nM. In the case of `N=C(N)NCCC[C@@H]1NC(=O)/C(=C/c2c[nH]c3cc(Br)ccc23)NC1=O` [BARETTIN], the Ki in assay [2] came out at 1910 nM; in assay [3], 1930 nM; in assay [1], 340 nM. With `NC(N)=NCCC[C@@H]1NC(=O)[C@H](Cc2c[nH]c3cc(Br)ccc23)NC1=O`, the Ki in assay [1] is 4630 nM. Molecule `CCCCCNC(=N)N/N=C/c1c[nH]c2ccc(OC)cc12` [TEGASEROD] displayed a Ki in assay [2] of 31 nM.

Consider `[3H]C([3H])([3H])n1cc(C(=O)OCC2CCN(CCNS(C)(=O)=O)CC2)c2ccccc21`, for which the Kd in assay [4] was 15.8 nM.

The values are drawn from ChEMBL document CHEMBL1158075, “Brominated cyclodipeptides from the marine sponge Geodia barretti as selective 5-HT ligands” (J Nat Prod, 2006).
